Source: US20130224795A1, “IMMOBILIZATION METHOD OF BIOACTIVE MOLECULES USING POLYPHENOL OXIDASE” (Ajou University Industry-Academic Cooperation Foundation, priority 2010, published 2013)

How the values were obtained:
[1] = tested on: osteoblasts (MC3T3-E1); experiment: Cell proliferation assay (MTT); assay type: cell-based; settings: immobilized stainless steel; 1×10^4 cell/cm^2; 7 days; versus bare surface
Experimental: For cell proliferation assay, osteoblasts (MC3T3-E1) were cultured at a density of 1×10^4 cell/cm^2 for 7 days on RGD- or gelatin-immobilized stainless steel, titanium or polyurethane surfaces, followed by conducting an MTTassay. Each specimen is represented in the form of, for example, ST-RGD 0.17 which stands for the immobilization of RGD at a concentration of 0.17 μg/cm^2 on stainless steel.

[2] = Contact angle measurement on immobilized substrate surfaces; assay type: physicochemical; settings: stainless steel or titanium; immobilization 30 min; tyramine with tyrosinase 0.4 KU/mL, dopamine without
Experimental: For experiments, dopamine and tyramine/tyrosinase were immobilized onto metal surfaces. In this regard, 450 μL of phosphate saline buffer was added to a piece of stainless steel or titanium metal and mixed with 40 μL of dopamine or tyramine having a concentration of 100 μg/mL. In the case of tyramine, tyrosinase having a concentration of 0.4 KU/mL was added in an amount of 10 μL. For effective comparison, a reaction was performed for 30 min. After immobilization, the specimens were washed three to five times with distilled water. An analysis was made of the results using contact angles and amine distributions on the surface. For contact angle measurements, droplets of 1 μL were deposited on a specimen surface and the angle at which the droplet interface meets the surface was measured using a contact angle meter (GBX Inc., France) and image analysis software.
Contact angles were measured to examine the change in hydrophilicity of bioactive molecule-immobilized surface. Droplets of 1 μL were deposited on a specimen surface after which contact angles were measured using a contact anglemeter (GBX Inc., France) equipped with image analysis software.

Row | Compound | proliferation of osteoblasts [1] | contact angle [2]
1 | gelatin-poly(ethylene glycol)-tyramine | improved the proliferation | –
2 | NCCc1ccc(O)c(O)c1 [dopa, dopamine] | – | 45 °
3 | NCCc1ccc(O)cc1 [tyramine] | – | 30 °
